# Source: patent publication US7217727B2, “Phospholipase inhibitors” (Eli Lilly and Company, priority 2003, dated 2007)
# Tested on: not given
# Assay: not given
# Conditions: not given
row,melting point [°C],Compound
1,112 to 113,"CCNC(=O)n1oc2ccccc2c1=O [Example 1, 3-Oxo-3H-benzo[d]isoxazole-2-carboxylic acid ethylamide]"
2,64 to 65,"CCCCNC(=O)n1oc2ccccc2c1=O [Example 2, 3-Oxo-3H-benzo[d]isoxazole-2-carboxylic acid butylamide]"
3,46 to 48,"CCCCCCNC(=O)n1oc2ccccc2c1=O [Example 3, 3-Oxo-3H-benzo[d]isoxazole-2-carboxylic acid hexylamide]"
4,73 to 75,"CC(C)CCCCNC(=O)n1oc2ccccc2c1=O [Example 4, 3-Oxo-3H-benzo[d]isoxazole-2-carboxylic acid (5-methyl-hexyl)amide]"
5,47 to 48,"CCCCCCCCNC(=O)n1oc2ccccc2c1=O [Example 5, 3-Oxo-3H-benzo[d]isoxazole-2-carboxylic acid octylamide]"
6,82 to 84,"O=C(NCC1CCCCC1)n1oc2ccccc2c1=O [Example 6, 3-Oxo-3H-benzo[d]isoxazole-2-carboxylic acid cyclohexylmethyl-amide]"
7,154 to 155,"Cc1ccccc1CNC(=O)n1oc2ccccc2c1=O [Example 8, 3-Oxo-3H-benzo[d]isoxazole-2-carboxylic acid 2-methyl-benzylamide]"
8,110 to 112,"Cc1cccc(CNC(=O)n2oc3ccccc3c2=O)c1 [Example 9, 3-Oxo-3H-benzo[d]isoxazole-2-carboxylic acid 3-methyl-benzylamide]"
9,139 to 141,"O=C(NCc1ccccc1C(F)(F)F)n1oc2ccccc2c1=O [Example 11, 3-Oxo-3H-benzo[d]isoxazole-2-carboxylic acid 2-trifluoromethyl-benzylamide]"
10,142 to 143,"O=C(NCc1ccccc1F)n1oc2ccccc2c1=O [Example 12, 3-Oxo-3H-benzo[d]isoxazole-2-carboxylic acid 2-fluoro-benzylamide]"
11,107 to 109,"CCc1ccccc1CNC(=O)n1oc2ccccc2c1=O [Example 14, 3-Oxo-3H-benzo[d]isoxazole-2-carboxylic acid 2-ethyl-benzylamide]"
12,72 to 73,"CCc1cccc(CNC(=O)n2oc3ccccc3c2=O)c1 [Example 15, 3-Oxo-3H-benzo[d]isoxazole-2-carboxylic acid 3-ethyl-benzylamide]"
13,123 to 125,"CC(C)(C)c1ccc(CNC(=O)n2oc3ccccc3c2=O)cc1 [Example 16, 3-Oxo-3H-benzo[d]isoxazole-2-carboxylic acid 4-tert-butyl-benzylamide]"
14,112 to 114,"Cc1cccc(C(C)C)c1CNC(=O)n1oc2ccccc2c1=O [Example 17, 3-Oxo-3H-benzo[d]isoxazole-2-carboxylic acid 2-isopropyl-6-methyl-benzylamide]"
15,99 to 100,"COc1cccc(CNC(=O)n2oc3ccccc3c2=O)c1 [Example 18, 3-Oxo-3H-benzo[d]isoxazole-2-carboxylic acid 3-methoxy-benzylamide]"
16,140 to 141,"COc1ccc(CNC(=O)n2oc3ccccc3c2=O)cc1 [Example 19, 3-Oxo-3H-benzo[d]isoxazole-2-carboxylic acid 4-methoxy-benzylamide]"
17,110 to 112,"CCOc1ccccc1CNC(=O)n1oc2ccccc2c1=O [Example 20, 3-Oxo-3H-benzo[d]isoxazole-2-carboxylic acid 2-ethoxy-benzylamide]"
18,89 to 90,"CCOc1cccc(CNC(=O)n2oc3ccccc3c2=O)c1 [Example 21, 3-Oxo-3H-benzo[d]isoxazole-2-carboxylic acid 3-ethoxy-benzylamide]"
19,110 to 112,"CCOc1ccc(CNC(=O)n2oc3ccccc3c2=O)cc1 [Example 22, 3-Oxo-3H-benzo[d]isoxazole-2-carboxylic acid 4-ethoxy-benzylamide]"
20,106 to 107,"O=C(NCCc1ccccc1)n1oc2ccccc2c1=O [Example 23, 3-Oxo-3H-benzo[d]isoxazole-2-carboxylic acid phenethyl-amide]"

# Biological target: T1, Recombinant Hepatic Lipase (Homo sapiens, UniProt P11150)
# T1 construct: made in house; host or cells: AV12 cells
# T1 sequence (P11150 23-499): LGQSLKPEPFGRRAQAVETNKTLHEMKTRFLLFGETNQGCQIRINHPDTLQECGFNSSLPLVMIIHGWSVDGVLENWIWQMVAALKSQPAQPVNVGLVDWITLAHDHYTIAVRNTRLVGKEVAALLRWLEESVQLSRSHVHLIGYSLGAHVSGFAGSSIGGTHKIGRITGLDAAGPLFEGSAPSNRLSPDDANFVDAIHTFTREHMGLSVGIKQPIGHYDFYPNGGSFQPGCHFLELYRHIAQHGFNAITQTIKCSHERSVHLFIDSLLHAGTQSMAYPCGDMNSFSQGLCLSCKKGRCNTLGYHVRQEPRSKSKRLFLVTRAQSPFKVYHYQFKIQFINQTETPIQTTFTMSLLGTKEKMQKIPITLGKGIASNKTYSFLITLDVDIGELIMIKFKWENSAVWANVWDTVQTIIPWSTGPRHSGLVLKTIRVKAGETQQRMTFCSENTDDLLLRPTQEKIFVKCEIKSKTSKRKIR
# Assay: Hepatic Lipase Phospholipase Assay (ThioPEG substrate, DTNB read at 412 nm)
# Assay type: biochemical
# Conditions: recombinant HL 12.5 nM, 37° C., pH 8.3, read-out: IC50 (nM), hepatic lipase inhibition assay
# Protocol: Hepatic Lipase Phospholipase Assay
# Efficacy was determined by testing various compounds of the invention in a hepatic lipase and/or endothelial lipase assay discussed below, and disclosed in U.S. patent application Ser. No. 09/609, 871 filed Jul. 3, 2000 incorporated herein in its entirety for U.S Patent office purposes.
# • Substrate Buffer A: 100 mM Hepes, pH 8.3 at 37° C. • Substrate Buffer B: 100 mM Hepes, pH 8.3 at 37° C. with 6.83 mM Triton X100 • ThioPEG: Molecular wt. of 540 • Recombinant Hepatic Lipase • Thiophospholipid: about 0.42 mM thiophospholipid in chloroform • DTNB Solution: about […] DTNB in DMSO (dimethyl sulfoxide) Hepes Buffer A
# For Hepes Buffer A,.there is 2.4 g Hepes/100 mL water. Therefore 36 grams of Hepes is dissolved in 1500 mL of water. The mix solution's pH is adjusted to pH83 at 37° C. and brought up to 1500 mL with water. 500 mL of Buffer A is retained for the Protein Buffer.
# To the remaining 1000 mL of Hepes Buffer A, 4.49 g of Triton X-100 is added and then the combination mixed on a stir plate. It is optimal that stock Buffer A not be too cold or Triton X-100 will take a long time to go into solution […]
# The enzyme is stored at −80° C. in 100 or 50 μL portions. […] The enzyme should then be stored on ice until ready to use. […]
row,IC50 [nM],Compound
1,60,O=C(NCc1ccccc1)n1oc2ccccc2c1=O
